biological target: T1, γ-secretase (Homo sapiens, UniProt P49768); assay: in vitro assay of γ-secretase activity (HEK293 membrane fraction, recombinant APP substrate, Abeta ELISA); type: biochemical; conditions: γ-secretase inhibition; HEK293 membrane fraction solubilized in 0.25% CHAPSO, recombinant human APP C-terminal 100 amino acids substrate, Abeta detected by ELISA
T1 construct: uses a HEK293 membrane fraction as a source of γ-secretase; endogenous in cells; host or cells: HEK293 (microsomal membrane fraction, solubilised in 0.25% CHAPSO)
Text: Description of 1γ-Secretase Assay The activity of test compounds can be evaluated in assays which measure the proteolytic cleavage of suitable substrates by γ-secretase activity. These can be cellular assays where e.g., a substrate of the γ-secretase is fused in its cytoplasmic domain to a transcription factor. Cells are transfected with this fusion gene and a reporter gene, e.g., firefly luciferase, which expression is enhanced by the transcription factor. Cleavage of the fused substrate by γ-secretase will lead to expression of the reporter gene which can be monitored in appropriate assays. The γ-secretase activity can also be determined in cell-free in vitro assays where e.g., a cell lysate containing the γ-secretase complex is incubated with a suitable APP-derived substrate which is cleaved to the Abeta peptides. The amount of produced peptides can be determined with specific ELISA assays. Cell lines of neuronal origin secrete Abeta peptides which can be measured with the specific ELISA assay. Treatment with compounds which inhibit γ-secretase leads to a reduction of secreted Abeta thus providing a measure of inhibition. The in vitro assay of γ-secretase activity uses a HEK293 membrane fraction as a source of γ-secretase and a recombinant APP substrate. Latter consist of the C-terminal 100 amino acids of human APP fused to a 6× Histidin tail for purification which is expressed in E. coli in a regulatable expression vector, e.g. pEt15. This recombinant protein corresponds to the truncated APP fragment which results after […] of the extracellular domain and which constitutes the γ-secretase substrate. The assay principle is described in Li Y M et al, PNAS 97(11), 6138-6143 (2000). Hek293 cells are mechanically disrupted and the microsomal fraction is isolated by differential centrifugation. The membranes are solubilized in detergent (0.25% CHAPSO) and incubated with the APP substrate. The Abeta peptides which are produced by γ-secretase cleavage of the substrate are detected by specific ELISA assays as described (Brockhaus M et al, Neuroreport 9(7), 1481-1486 (1998).

IC50 [nM] | SMILES
7 | CCOC(C(=O)NCC(F)(F)C(F)(F)F)C(=O)N[C@@H]1C(=O)N(CCO)c2ccccc2-c2ccccc21 (single isomer, unassigned; epimer a) [Example 18, (S or R)-2-Ethoxy-N—[(S)-5-(2-hydroxy-ethyl)-6-oxo-6,7-dihydro-5H-dibenzo[b,d]azepin-7-yl]-N′-(2,2,3,3,3-pentafluoro-propyl)-malonamide, epimer A]
3 | CC(O)(C(=O)NCC(F)(F)C(F)(F)F)C(=O)N[C@@H]1C(=O)N(CCO)c2ccccc2-c2ccccc21 (single isomer, unassigned; epimer a) [Example 20]
9 | COCCN1C(=O)[C@@H](NC(=O)C(C)(O)C(=O)NCC(F)(F)C(F)(F)F)c2ccccc2-c2ccccc21 (single isomer, unassigned; epimer a) [Example 45]
39 | CC(O)(C(=O)NCCC(F)(F)F)C(=O)N[C@@H]1C(=O)N(CCO)c2ccccc2-c2ccccc21 (single isomer, unassigned; epimer a) [Example 65, (R or S)-2-Hydroxy-N—[(S)-5-(2-hydroxy-ethyl)-6-oxo-6,7-dihydro-5H-dibenzo[b,d]azepin-7-yl]-2-methyl-N′-(3,3,3-trifluoro-propyl)-malonamide, epimer A]
4 | CCOC(C(=O)NCC(F)(F)C(F)(F)F)C(=O)N[C@@H]1C(=O)N(CCO)c2ccccc2-c2ccccc21 (single isomer, unassigned; epimer b) [Example 19, [R or S]2-Ethoxy-N—[(S)-5-(2-hydroxy-ethyl)-6-oxo-6,7-dihydro-5H-dibenzo[b,d]azepin-7-yl]-N′-(2,2,3,3,3-pentafluoro-propyl)-malonamide, epimer B]
1 | CC(O)(C(=O)NCC(F)(F)C(F)(F)F)C(=O)N[C@@H]1C(=O)N(CCO)c2ccccc2-c2ccccc21 (single isomer, unassigned; epimer b) [Example 21]
2 | COCCN1C(=O)[C@@H](NC(=O)C(C)(O)C(=O)NCC(F)(F)C(F)(F)F)c2ccccc2-c2ccccc21 (single isomer, unassigned; epimer b) [Example 46]
1 | CC(O)(C(=O)NCCC(F)(F)C(F)(F)F)C(=O)N[C@@H]1C(=O)N(CCO)c2ccccc2-c2ccccc21 (single isomer, unassigned; epimer b) [Example 62, (S or R)-2-Hydroxy-N—[(S)-5-(2-hydroxy-ethyl)-6-oxo-6,7-dihydro-5H-dibenzo[b,d]azepin-7-yl]-2-methyl-N′-(3,3,4,4,4-pentafluoro-butyl)-malonamide, epimer B]
1 | CC(O)(C(=O)NCCC(F)(F)F)C(=O)N[C@@H]1C(=O)N(CCO)c2ccccc2-c2ccccc21 (single isomer, unassigned; epimer b) [Example 66, (S or R)-2-Hydroxy-N—[(S)-5-(2-hydroxy-ethyl)-6-oxo-6,7-dihydro-5H-dibenzo[b,d]azepin-7-yl]-2-methyl-N′-(3,3,3-trifluoro-propyl)-malonamide, epimer B]
10 | COC(=O)CN1C(=O)[C@@H](NC(=O)C(C)C(=O)NCC(F)(F)C(F)(F)F)c2ccccc2-c2ccccc21 (stereo partly drawn) [Example 1, {(S)-6-Oxo-7-[2-(2,2,3,3,3-pentafluoro-propylcarbamoyl)-propionylamino]-6,7-dihydro-dibenzo[b,d]azepin-5-yl}-acetic acid methyl ester]
6 | CC(C(=O)NCC(F)(F)C(F)(F)F)C(=O)N[C@@H]1C(=O)N(CCOCc2ccccc2)c2ccccc2-c2ccccc21 (stereo partly drawn) [Example 2, N—[(S)-5-(2-Benzyloxy-ethyl)-6-oxo-6,7-dihydro-5H-dibenzo[b,d]azepin-7-yl]-2-methyl-N′-(2,2,3,3,3-pentafluoro-propyl)-malonamide]
1 | CC(C(=O)NCC(F)(F)C(F)(F)F)C(=O)N[C@@H]1C(=O)N(CCO)c2ccccc2-c2ccccc21 (stereo partly drawn) [Example 3, N—[(S)-5-(2-Hydroxy-ethyl)-6-oxo-6,7-dihydro-5H-dibenzo[b,d]azepin-7-yl]-2-methyl-N ′-(2,2,3,3,3-pentafluoro-propyl)-malonamide]
9 | CC(C)(C(=O)NCC(F)(F)C(F)(F)F)C(=O)N[C@@H]1C(=O)N(CCOCc2ccccc2)c2ccccc2-c2ccccc21 [Example 4, N—[(S)-5-(2-Benzyloxy-ethyl)-6-oxo-6,7-dihydro-5H-dibenzo[b,d]azepin-7-yl]-2,2-dimethyl-N′-(2,2,3,3,3-pentafluoro-propyl)-malonamide]
11 | C[C@H](OC(=O)NCC(F)(F)C(F)(F)F)C(=O)N[C@@H]1C(=O)N(CCOCc2ccccc2)c2ccccc2-c2ccccc21 [Example 5, (2,2,3,3,3-Pentafluoro-propyl)-carbamic acid (S)-1-[(S)-5-(2-benzyloxy-ethyl)-6-oxo-6,7-dihydro-5H-dibenzo[b,d]azepin-7-ylcarbamoyl]-ethyl ester]
2 | CC(C)(C(=O)NCC(F)(F)C(F)(F)F)C(=O)N[C@@H]1C(=O)N(CCO)c2ccccc2-c2ccccc21 [Example 6, N—[(S)-5-(2-Hydroxy-ethyl)-6-oxo-6,7-dihydro-5H-dibenzo[b,d]azepin-7-yl]-2,2-dimethyl-N′-(2,2,3,3,3-pentafluoro-propyl)-malonamide]
22 | O=C(CC(=O)N[C@@H]1C(=O)N(CCOCc2ccccc2)c2ccccc2-c2ccccc21)NCC(F)(F)C(F)(F)F [Example 7, N—[(S)-5-(2-Benzyloxy-ethyl)-6-oxo-6,7-dihydro-5H-dibenzo[b,d]azepin-7-yl]-N′-(2,2,3,3,3-pentafluoro-propyl)-malonamide]
6 | C[C@H](OC(=O)NCC(F)(F)C(F)(F)F)C(=O)N[C@@H]1C(=O)N(CCO)c2ccccc2-c2ccccc21 [Example 8, (2,2,3,3,3-Pentafluoro-propyl)-carbamic acid (S)-1-[(S)-5-(2-hydroxy-ethyl)-6-oxo-6,7-dihydro-5H-dibenzo[b,d]azepin-7-ylcarbamoyl]-ethyl ester]
19 | O=C(CC(=O)N[C@@H]1C(=O)N(CCO)c2ccccc2-c2ccccc21)NCC(F)(F)C(F)(F)F [Example 9, N—[(S)-5-(2-Hydroxy-ethyl)-6-oxo-6,7-dihydro-5H-dibenzo[b,d]azepin-7-yl]-N′-(2,2,3,3,3-pentafluoro-propyl)-malonamide]
49 | COC(C(=O)NCC(F)(F)C(F)(F)F)C(=O)N[C@@H]1C(=O)N(CCOCc2ccccc2)c2ccccc2-c2ccccc21 (stereo partly drawn) [Example 10, N—[(S)-5-(2-Benzyloxy-ethyl)-6-oxo-6,7-dihydro-5H-dibenzo[b,d]azepin-7-yl]-2-methoxy-N′-(2,2,3,3,3-pentafluoro-propyl)-malonamide]
7 | COC(C(=O)NCC(F)(F)C(F)(F)F)C(=O)N[C@@H]1C(=O)N(CCO)c2ccccc2-c2ccccc21 (stereo partly drawn) [Example 11, N—[(S)-5-(2-Hydroxy-ethyl)-6-oxo-6,7-dihydro-5H-dibenzo[b,d]azepin-7-yl]-2-methoxy-N′-(2,2,3,3,3-pentafluoro-propyl)-malonamide]
10 | CC(O)(C(=O)NCC(F)(F)C(F)(F)F)C(=O)N[C@@H]1C(=O)N(CCOCc2ccccc2)c2ccccc2-c2ccccc21 (stereo partly drawn) [Example 12, N—[(S)-5-(2-Benzyloxy-ethyl)-6-oxo-6,7-dihydro-5H-dibenzo[b,d]azepin-7-yl]-2-hydroxy-2-methyl-N′-(2,2,3,3,3-pentafluoro-propyl)-malonamide]
10 | CC(F)(C(=O)NCC(F)(F)C(F)(F)F)C(=O)N[C@@H]1C(=O)N(CCOCc2ccccc2)c2ccccc2-c2ccccc21 (stereo partly drawn) [Example 13, N—[(S)-5-(2-Benzyloxy-ethyl)-6-oxo-6,7-dihydro-5H-dibenzo[b,d]azepin-7-yl]-2-fluoro-2-methyl-N′-(2,2,3,3,3-pentafluoro-propyl)-malonamide]
8 | CCOC(C(=O)NCC(F)(F)C(F)(F)F)C(=O)N[C@@H]1C(=O)N(CCOCc2ccccc2)c2ccccc2-c2ccccc21 (stereo partly shown) [Example 14]
1 | CC(O)(C(=O)NCC(F)(F)C(F)(F)F)C(=O)N[C@@H]1C(=O)N(CCO)c2ccccc2-c2ccccc21 (stereo partly drawn) [Example 15, 2-Hydroxy-N—[(S)-5-(2-hydroxy-ethyl)-6-oxo-6,7-dihydro-5H-dibenzo[b,d]azepin-7-yl]-2-methyl-N′-(2,2,3,3,3-pentafluoro-propyl)-malonamide]
3 | CC(F)(C(=O)NCC(F)(F)C(F)(F)F)C(=O)N[C@@H]1C(=O)N(CCO)c2ccccc2-c2ccccc21 (stereo partly drawn) [Example 16, 2-Fluoro-N—[(S)-5-(2-hydroxy-ethyl)-6-oxo-6,7-dihydro-5H-dibenzo[b,d]azepin-7-yl]-2-methyl-N′-(2,2,3,3,3-pentafluoro-propyl)-malonamide]

From US7425551B2, “Malonamide derivatives” (Hoffmann-La Roche Inc., priority 2006, dated 2008)
